Experiment [1] concerns prostate cancer cells (ATCC-HTB-81). In words: Activity in vitro on prostate cancer cells. The class given is cell-based, human. The following applies: 30 μM, ethanolic form. On the procedure:
They were obtained from ATCC (ref. ATCC-HTB-81). The culture medium is the same as that used for the liver cancer lines. The doubling time is 60 h. • Breast cancer cells
(§1) The cancer cells used are from liver (ref. ATCC-HB-8065), prostate (ref. ATCC-HTB-81), breast (ref. ATCC-HTB-19) cancer cells, and from colon cancer cells (ECACC-HT29/219) of human origin, mentioned above.

For experiment [2], the system named is colon cancer cells (ECACC-HT29/219). In words: Activity in vitro on colon cancer cells. The class given is cell-based, human. The following applies: 15 μM, improved liposomal form.
Text: They were obtained from the ECACC collection (Ref. ECACC-85061109). The culture conditions are based on the recommendations in the Sigma-Aldrich information leaflet. • Neuroblastoma (line SH-SY5Y)
as §1

The subject of experiment [3] is white blood cells from a patient suffering from CMML. Put plainly: Activity in vitro on Chronic Myelomonocytic Leukaemia (CMML) cells. The class given is cell-based, human. The following applies: 10 μM once, improved liposomal form, 72 h of treatment. As to the method: The cells purified from blood samples of patients suffering from Chronic Myelomonocytic Leukaemia (CMML) were obtained by the Clinical Haematology Centre and the Biotherapy Centre of the Saint Eloi Hospital (CHU de Montpellier). Culture was carried out by the technique of seeding on a feed layer. […] The CMML cells were cultured on cell lines originating from human embryo spinal cord (17).
The white blood cells are isolated from a blood sample collected from a patient suffering from CMML. The cells are treated once with 10 μM of molecule 2.b in improved liposomal form 24 hours after culturing by seeding on a feed layer (17).
The controls are cells treated with empty liposomes: the upper left hand photograph marked with the letter A was taken after 48 h of treatment and the lower left hand photograph with the letter B after 72 h of treatment.
For the cells treated with 2.b, the upper right hand photograph marked with the letter C was taken after 48 h of treatment and the lower right hand photograph with the letter D after 72 h of treatment.

Experiment [4] relates to Neuroblastoma (line SH-SY5Y, ATCC-CRL-2266). Put plainly: Activity in vitro on human neuroblastomas. The note with it: 22 μM once, concentrated liposomal form, 7 days of treatment. The class given is cell-based. On the procedure:
They were obtained from the ATCC collection (Ref. ATCC-CRL-2266). The culture conditions are based on the recommendations in the ATCC information leaflet. • Chronic Myelomonocytic Leukaemia (CMML)
The neuroblastomas were treated with empty liposomes (controls) or with liposomes containing molecule 1.b or 2.b, 24 h after starting the culture. The cells are treated once with 22 μM of molecule 1.b or 22 μM of molecule 2.b. The liposomal form is concentrated.
For the control cells, the upper left hand photograph marked with the letter A was taken after 7 days of treatment; the lower left hand photograph marked with the letter B was taken after 28 days of treatment.
For the cells treated with the concentrated liposomal molecule 1.b, the photograph marked with the letter C (in the middle, at the top) was taken after 7 days of treatment and the photograph marked with the letter D (in the middle, at the bottom) after 28 days of treatment. For the cells treated with the concentrated liposomal molecule 2.b, the upper right hand photograph marked with the letter E was taken after 7 days of treatment.

The test system of experiment [5] is LDH from Lactobacillus leichmannii (LL). In words: Inhibition of LDH activity, in gel assay after IEF. The note with it: ethanolic form, 36 mM. The class given is biochemical. As to the method:
The measurements of the activity of LDH and of its inhibition by a routine inhibitor, oxamate (23), were validated by the spectrometric method (24) using the purified LDH of Lactobacillus leichmannii (LL) (Sigma) as standard.
(§2) Next, the LDH activities and their inhibition were detected by the “in gel assay” technique (25). The source of activity used was LDH LL and LDH, partially purified, from human GBM lines U87-MG (LDH GBM). “In gel assay” detection was carried out after isoelectric focusing (IEF) on electrophoresis gels of the LDH LL and LDH GBM samples.
The mini-gels of 7.5 (T %) and of 2.6 (C %) are poured into Pi with the Ampholines (BioRad) making it possible to form a pH gradient in the range from 7 to 5 after pre-focusing in a cold chamber. The containers used are of the mini-protean 3 type (BioRad). […]
(§3) The LDH activity is detected by the lactate/NAD/MTT/phenazine methosulphate system (formation of a precipitate of the formazan type in the IEF gel); this system is described in reference (25). […]
(§4) The activity of LDH is detected by the “in gel assay” technique on IEF electrophoresis gels, which were described in the section “A/ PROTOCOLS 6)” (25); the precision of this technique is 0.2 unit of pH. The activity of LDH is detected by a dark blue precipitate, of the formazan type, the site where LDH activity is located.

Experiment [6] concerns partially purified LDH from human GBM lines (U87-MG). Put plainly: Inhibition of LDH activity, in gel assay after IEF. The class given is biochemical. The following applies: ethanolic form, 36 mM. As to the method:
as §2
The cells collected in phosphate buffer (50 mM, Ph 7.2.Pi) undergo several freeze (−20° C.)/thaw cycles and the cellular material is homogenized. After centrifugation at 10,000 g for 45 min at 4° C., the supernatant is collected and aliquots containing 10% glycerol (v:v) are frozen at −80° C. At the desired time, the aliquots, after thawing, are chromatographed on a filtration column (Biogel P-60, BioRad) prepared in Pi. The volume of gel is 9 ml and the inside diameter of the column is 0.4 cm. Elution is carried out at atmospheric pressure. […]
as §3, §4

As for `CC(=O)OC1C=C2CC(OC(=O)C3COC(C)(C)O3)CCC2(C)C2CCC3(C)C(C(C)CCCC(C)C)CCC3C12` (stereo not drawn) [Molecule 2.b, 7-acetoxy-10,13-dimethyl-17-(6-methylheptan-2-yl)-2,3,4,7,8,9,10,11,12,13,14,15,16,17-tetradecahydro-1H-cyclopenta[a]phenanthren-3-yl 2,2-dimethyl-1,3-dioxolane-4-carboxylate], the “effect on cellular division and respiration” value in experiment [1] is “no effect”. Further, the “toxicity to colon cancer cells” value in experiment [2] was “not toxic”. For the same compound, the “effect on cell multiplication relative to the control” value in experiment [3] is “Cell multiplication is slowed considerably”. Further, the “toxicity to neuroblastoma cells compared to the control cells” value in experiment [4] was “no viable cell is observed”. Besides, the “inhibition of the enzymatic activity of LDH LL” value in experiment [5] is on record as “almost completely”. Further, the “inhibition of the enzymatic activity of LDH GBM” value in experiment [6] was “partially”.

Source of the values: US10800806B2, “Sterol derivatives and use thereof for treating diseases involving transformed astrocyte cells or for treating malignant haemopathies” (BETA INNOV, priority 2012, dated 2020).
